Data reported in patent US8802669B2, “Dihydropyrimidine compounds and preparation methods, pharmaceutical compositions and uses thereof” (Institute of Pharmacology and Toxicology Academy of …, priority 2009, dated 2014).

What was measured:
[1] = tested on: HBV DNA; assay: Antiviral activity: inhibition of HBV DNA in supernatant of HepG2.2.15 cells (dot blot hybridization); assay type: cell-based, hepatitis B virus; details: for IC50: Hepatitis B virus, HepG2.2.15 cells, 8 days (2 x 4 days) incubation, read-out: IC50 (Inhibitory effect on HBV DNA); for SI: selectivity index, TC50 against IC50, HepG2.2.15 cells
Experimental: The antiviral activity of the compounds according to the present invention was tested following the methods described by Sells et al. (M. A. Sells, M. L. Chen, g. Acs, Proc. Natl. Acad. Sci., 1987, 84, 1005-1009) and Korba et al., (B. E. Korba, J. L. Gerin, Antiviral Research, 1992, 19. 55-70).
(§1) The antiviral tests were carried out in 96-well microtitre plates. Only growth medium and HepG2.2.15 cells were added to the first vertical row of the plate, which row severed as a blank control.
(§2) Stock solutions of the test compounds (50 mM) were initially dissolved in DMSO, and further dilutions were prepared in the growth medium of HepG2.2.15. The compounds according to the present invention, usually in a test concentration of 100 μg/ml (1st test concentration), were in each case pipetted into the second vertical test row of the microtitre plate and subsequently diluted by a factor of 2 each time, up to 2^10-fold, using growth medium plus 2% of foetal calf serum (volume 25 μl).
(§3) 225 μl of a HepG2.2.15 cell suspension (5×10^4 cells/ml) in growth medium plus 2% foetal calf serum were then added to each well of the microtitre plate.
(§4) The test batch was incubated at 37° C., 5% CO2 for 4 days. The supernatant was subsequently siphoned off and discarded, and 225 μl of freshly prepared growth medium were added to the wells. Once more, the compounds according to the present invention were added, in a volume 25 μl. The batches were incubated fro another 4 days.
The supernatants were subsequently harvested and, by means of reduced pressure, siphoned onto 96-well dot blot chambers covered with a nylon membrane (in accordance with the specification provided by the manufacturer).
After transfer of the supernatants onto the nylon membrane of the blot apparatus (see above), the supernatants of the HepG2.2.15 cells were denatured (1.5 M NaCl/0.5 N NaOH), neutralized (3 M […]/0.5 M Tris HCl, pH 7.5) and washed (2×SSC). By incubation of the filters at 120° C. for 2-4 hours, the DNA was subsequently baked onto the membrane.
The viral DNA of the treated HEpG2.2.15 cells on the nylon filter membrane was usually detected using non-radioactive digoxygenin-labelled hepatitis B-specific DNA probes which were in each case in accordance with the specifications of the manufacturer labelled with digoxygenin, purified and used for hybridization.
Briefly speaking, the prehybridization and hybridization were carried out in 5×SSC, 1×blocking reagent, 0.1% N-lauroylsacosine, 0.02% SDS and 100 μg of DNA from herring sperm. The prehybridization was carried out at 60° C. for 30 minutes and the specific hybridization was carried out using 20 to 40 ng/ml of the digoxygenated denatured HBV-specific DNA (14 hours, 60° C.). The fillers were subsequently washed, and then determination of HBV DNA by digoxygenin antibodies was carried out.
The digoxygenin-labelled DNA was detected immunologically in accordance with the specifications of the manufacturer.
Briefly speaking, the fillers were washed and prehybridized in a blocking agent (in accordance with the specifications of the manufacturer). They were subsequently hybridized for 30 minutes using an anti-DIG antibody linked to alkaline phosphatase. After a washing step, the substrate of alkaline phosphatase, CSPD, was added, incubated with the filters for 5 minutes, subsequently wrapped in plastic film and incubated at 37° C. for a further 15 minutes. The chemiluminescene of the Hepatitis B-specific DNA signals was visualized by exposition of the filters on an X-ray film (incubation, depending on the signal strength: 10 minutes to 2 hours). The half-maximum inhibitory concentration (IC50) was determined.
The half-maximum inhibitory concentration (IC50) means the concentration at which the hepatitis B-specific band was reduced by 50% in comparison with an untreated sample by the compound according to the present invention.

[2] = Cytotoxicity in HepG2.2.15 cells (cell morphology, Reed & Muench); assay type: cell-based; details: human, pathological changes observed by microscope after 8 days, read-out: TC50
Experimental: as §1, §2, §3, §4
Before the supernatants were harvested for determining the antiviral effect, the HePG2.2.15 cells were examined under the light microscope or by biochemical detection methods (for example Alamar Blue staining or Trypan Blue staining) for cytotoxic changes.
Substances-induced cytotoxic or cytostatic changes in the HepG2.2.15 cells were determined as changes in the cell morphology, for example under a light microscope. Such substance-induced changes of the HepG2.2.15 cells in comparison with untreated cells was apparent, for example, as cell lysis, vacuolization changed cell morphology. The pathological changes were observed by microscope after 8 days as index, a complete destroy being indicated as 4, 75% as 3, 50% as 2, 25% as 1, and no pathological change as 0. The average pathological change degree and inhibited percentages at various concentration were calculated, and a half-maximum toxic concentration (TC50) and a maximum non-toxic concentration […] were determined according to Reed & Muench methods.
TC50 means the concentration at which 50% of the cells have a morphology which is […] to the corresponding cell control by the compounds according to the present invention.

[3] = Solubility of the hydrochloride solid in solvents; assay type: physicochemical
Experimental: 0.18 g of the target compound obtained in Example 5 was dissolved in 2 ml of anhydrous ethanol, a solution of hydrogen chloride in ethyl-ether was added dropwise to precipitate a solid, and filtered to give 0.19 g of an off-white powdered solid.

SMILES | IC50 [1] [µM] | SI [1] | CC50 at 8 days [2] [µM] | solubility in dichloromethane, ethyl acetate, acetone, and the like ([3]; dichloromethane, ethyl acetate, acetone) | solubility in methanol and ethanol ([3]; methanol and ethanol) | solubility in water ([3]; water)
CCOC(=O)C1=C(CN2CCN(CC)CC2)NC(c2c(F)cc(F)cc2F)=NC1c1ccc(F)cc1Cl (stereo not drawn) [Example 8, ethyl 2-(2,4,6-trifluorophenyl)-4-(2-chloro-4-fluorophenyl)-6-(4-ethylpiperazin-1-ylmethyl)-1,4-dihydropyrimidine-5-carboxylate] | 6.7 | 6.16 | 41 | – | – | –
CCOC(=O)C1=C(CN2CCOCC2)N=C(c2c(F)cc(F)cc2N2CCOCC2)NC1c1ccc(F)cc1Cl (stereo not drawn) [Example 13, ethyl 2-[2,4-difluoro-6-(morpholin-1-yl)phenyl]-4-(2-chlor-4-fluorophenyl)-6-(morpholine-1-ylmethyl)-1,4-dihydropyrimidine-5-carboxylate] | 4.4 | 12.72 | 55 | – | – | –
CCOC(=O)C1=C(CN(CCO)CCO)NC(c2c(F)cc(F)cc2F)=NC1c1ccc(F)cc1Cl (stereo not drawn) [Example 15, ethyl 2-(2,4,6-trifluorophenyl)-4-(2-chloro-4-fluorophenyl)-6-diethanolaminomethyl-1,4-dihydropyrimidine-5-carboxylate] | 6.7 | 8.11 | 54 | – | – | –
CCOC(=O)C1=C(CN2CCOCC2)NC(c2c(F)cc(F)cc2F)=NC1c1ccc(F)cc1Cl.Cl (stereo not drawn) [Example 18, ethyl 2-(2,4,6-trifluorophenyl)-4-(2-chloro-4-fluorophenyl)-6-(morpholin-1-ylmethyl)-1,4-dihydropyrimidine-5-carboxylate hydrochloride] | 2.4 | 13.37 | 31 | insoluble | soluble slightly | greatly soluble
